# Reference: US8530181B2, “Method of screening for compounds which affect the cleavage of EphA7 byγ-secretase” (Eisai R&D Management Co., Ltd., priority 2007, dated 2013)
# Target: T1, γ-secretase (Homo sapiens, UniProt P49768)
# T1 construct: 293/EBNA-1 cell strain (Invitrogen) was cultured in 10% FBS (Hyclone)/DMEM (Invitrogen); host or cells: 293/EBNA-1 (HEK293) cells; only the substrate rat EphA7-HA was transfected
# Test: Analysis of EphA7 processing in EphA7-transfected 293/EBNA-1 cell strain (Western blotting with anti-HA antibody)
# Type: cell-based
# Set-up: dose or concentration left out as unconfirmed
# Conditions: HEK293 (293/EBNA-1) cells expressing rat EphA7-HA; Compound E added to culture broth, cultured one day; compared with cells without Compound E
# Method: Whether or not EphA7 is a substrate for γ-secretase was evaluated using HEK293 cells expressing a gene encoding EphA7 with an HA tag added to its C-terminus, in the presence of a γ-secretase inhibitor. As the γ-secretase inhibitor, (2S)-2-{[(3,5-difluorophenyl)acetyl]amino}-N-[(3S)-1-methyl-2-oxo-5-phenyl-2,3-dihydro-1H-1,4-benzodiazepin-3-yl]propanamide (hereinafter, sometimes referred to as “Compound E”) (Alexis Biochemicals) was used.
# 293/EBNA-1 cell strain (Invitrogen) was cultured in 10% FBS (Hyclone)/DMEM (Invitrogen) under 5% CO2 at 37° C., followed by transfection thereinto of the gene encoding rat EphA7 with an HA tag added to its C-terminus using Lipofectamine 2000 (Invitrogen). After one day culture under the same conditions, […] Compound E (γ-secretase inhibitor; Alexis Biochemicals) was added to the culture broth. Cells were cultured for another day under the same conditions. Then, the transfected HEK293 cells were collected with PBS (Sigma) and sonicated with a sonicator (Taitec VP-5S) to disrupt cells. Then, the quantity of protein was determined with Protein Assay Kit (BioRad). […]
# First, the substrate for γ-secretase is cut off its extracellular domain by other protease. […] Since reactions proceed very quickly from the first cleavage to the final degradation by proteasome, the substrate is […] when detected by Western blotting.
compound,measurement,value
"C[C@H](NC(=O)Cc1cc(F)cc(F)c1)C(=O)N[C@H]1N=C(c2ccccc2)c2ccccc2N(C)C1=O [Compound E, (2S)-2-{[(3,5-difluorophenyl)acetyl]amino}-N-[(3S)-1-methyl-2-oxo-5-phenyl-2,3-dihydro-1H-1,4-benzodiazepin-3-yl]propanamide]","Accumulation of EphA7 C-terminal fragment (CTF, band around 50 kDa) on Western blot, indicating inhibited cleavage of EphA7 by γ-secretase",CTF was accumulated
